Results: patent publication US20200375949A1, “BISPHENOL COMPOUNDS” (THE TRUSTEES OF THE UNIVERSITY OF PENNSYLVANIA, priority 2017, published 2020)
≈ marks a conversion by molar mass, not a printed value. Where “and” joins values, the source holds several entries; their conditions need not be identical. Identical values can stand only once. Like-named read-outs stand apart in the source and are kept apart here.

Columns and labels:
[1] = system: red blood cells (mechanically defibrinated sheep blood); assay: Hemolysis assay (cell lysis); type: cell-based; set-up: red blood cell lysis: unit not given here; details: for red blood cell lysis: 1 hour, 37° C.; for concentration at which the membrane is perturbed: stated under the cell lysis example
Procedure: The effects of the compounds described herein to lyse cells was evaluated in this example. Hemolysis assays were performed on mechanically defibrinated sheep blood (Hemostat Labs: DSB030). 1.5 mL of blood was placed into a microcentrifuge tube and centrifuged at 10,000 rpm for ten minutes. The supernatant was removed and then the cells were resuspended with 1 mL of phosphate-buffered saline (PBS). The suspension was centrifuged as previously, the supernatant was removed, and cells were resuspended two more times. The final cell suspension was diluted twentyfold with PBS. The twentyfold suspension dilution was then aliquoted into microcentrifuge tubes containing compound serially diluted in PBS. TritonX (1% by volume) served as a positive control (100% lysis marker) and sterile PBS served as a negative control (0% lysis marker). Samples were then placed in an incubator at 37° C. and shaken at 200 rpm. After 1 hour, the samples were centrifuged at 10,000 rpm for ten minutes. The absorbance of the supernatant was measured with a UV spectrometer at a 540 nm wavelength. See, e.g., Peng, Chem. Comm. 2011, 47, 4896-4898.

[2] = system: Streptococcus mutans wild-type strain UA159; assay: MIC assay, S. mutans; type: cell-based
Source text: (§1) Streptococcus mutans wild-type strain UA159 was provided by Dr. Bettina Buttaro from Temple University Medical School, Philadelphia, Pa. Streptococcus gordonii strain DL1 and Streptococcus sanguinis strain 10904 were provided by Dr. Robert G. Quivey from University of Rochester Medical School. Streptococcus gordonii strain DL1 may be obtained from the American Type Culture Collection under accession #49818. Streptococcus sanguinis strain 10904 may be obtained from the National Collection of Type Cultures under accession #10904. Bacteria were routinely maintained on in Bacto™ Todd-Hewitt (TH) agar plates and liquid cultures were grown in Bacto™ Todd-Hewitt broth (THB). For growth of biofilms, THB was supplemented with 0.1% sucrose. Incubation was stagnant at 37° C. Bacterial strains Methicillin-Resistant Staphylococcus aureus HPV107, Staphylococcus epidermidis Fussel [NCTC 11047, R. Hugh 2466], Streptococcus sobrinus SL1 [CCM 6070, CNCTC 9/89], Enterococcus faecalis NCTC 775 [DSM 20478, JCM 8726, NCDO 581, Tissier], Pseudomonas aeruginosa [CCEB 481, MDB strain BU 277, NCIB 8295, NCPPB 1965, NCTC 10332, NRRL B-771, R. Hugh 815], Serratia marcescens BS 303 [CDC 813-60, NCIB 9155, NCTC 10211], and Acinetobacter baumannii 2208 [81, DSM 6974] were purchased from the American Type Culture Collection.
(§2) Stock solutions of compounds (10 mM) were serial diluted (200 μL, 100 μL, 50 μL, 10 μL, and 2 μL) in THB media in flat-bottom 96-well microtiter plates (total volume 100 μL). Bacterial cultures were grown in brain heart infusion or nutrient broth media to mid-exponential phase, back diluted to an OD of 0.1 and then inoculated into the 96-well plate to reach a final volume of 200 μL. Plates were inoculated at 37° C. in 5% CO2 for 20-24 hours upon which time wells were evaluated visually for bacterial growth and/or the wells' OD630 was evaluated via spectrophotometer. […] DMSO controls corresponding to each test concentration were performed. Biological triplicates were performed to confirm results.

membrane = assay: SYTOX green cell permeabilization assay; type: cell-based; details: SYTOX green nucleic acid stain, FIGS. 1A-1F
Procedure: This example was performed to measure cell viability (i.e., cell permeabilization) by using a molecule that fluoresces when bound to DNA. The assay performed was a SYTOX™ assay green nucleic acid stain using compounds 1H and 2E. Specifically, when the membrane was perturbed, the molecule entered the cell, bound to DNA and fluoresced. The positive and negative controls were a quaternary ammonium compound (QAC; 12,3,2,3,12) and vancomycin, respectively. See the results shown in, e.g., FIGS. 1A-1F.

[3] = system: Streptococcus gordonii strain DL1; assay: MIC assay, S. gordonii; type: cell-based; details: 5% CO2, 37° C., 20-24 hours
Source text: as §1, §2

[4] = system: Streptococcus sanguinis strain 10904; assay: MIC assay, S. sanguinis; type: cell-based; details: 5% CO2, 37° C., 20-24 hours
Source text: as §1, §2

S. mutans = S. mutans MBC assay; type: cell-based, Streptococcus mutans; details: for MBC: Streptococcus mutans, 3-log reduction in CFU count (99.9% bacterial death); for bacteriostatic or bactericidal properties (regrow analysis, MIC vs MBC): S. mutans
Procedure: MIC assay was performed (above) and each well diluted (log-dilution) into a new 96-well microtiter plate. Five μL from each dilution was then plated on THB agar plates and incubated for 24 hours. Colony counts were performed to determine MBC which is defined as the concentration which there is a 3-log reduction in CFU count which corresponds to 99.9% bacterial death.

[5] = system: Streptococcus mutans wild-type strain UA159; details: original assays in aerobic environment; cited from earlier work
[6] = system: Streptococcus mutans wild-type strain UA159; assay: MIC assay, S. mutans; type: cell-based; details: read-out: MIC S. mutans, aerobic conditions
S. mutans biofilm = S. mutans biofilm model / crystal violet; type: cell-based, Streptococcus mutans; details: at concentrations of 250 μM or lower
Procedure: Stock solutions of the compounds (10 mM) were serial diluted in THB media supplemented with 0.1% sucrose (w/v) in flat-bottom 96-well microtiter plates (total volume 100 μL). Bacterial cultures were grown to mid-exponential phase, back diluted to an OD of 0.1 and then inoculated into the 96-well plate to reach a final volume of 200 μL. Plates were incubated at 37° C. in 5% CO2 for 24 hours (early stage biofilm) upon which time wells were evaluated visually for bacterial growth. DMSO controls corresponding to each test concentration were performed. Biological triplicates were performed to confirm results. Biofilm assay was performed (above) and wells are washed with 200 μL of DI H2O and dried for 24 hours at 37° C. Dried plates were incubated for 10 minutes at room temperature with 50 μL of 1% w/v crystal violet (25% ethanol in H2O). Excess crystal violet was removed via aspiration. 200 μL of DI H2O was added to each well and aspirated (repeat until all excess crystal violet is removed). Plates were then inverted and dried at 37° C. for 3-5 hours. Crystal violet stain biofilm mass was dissolved with 200 μL of 95% ethanol, 100 μL of which was then transferred to a fresh flat-bottom 96-well plate for absorbance measurements at 595 nm. DMSO controls corresponding to each test concentration were performed. Biological triplicate was performed to confirm results. […]

[7] = Concentration 500 μM, TritonX 100% lysis, PBS 0% lysis
[8] = planktonic, 5% CO2, 37° C., 20-24 hours

Row | SMILES | red blood cell lysis ([1]; Concentration 0.25 μM) | red blood cell lysis ([1]; Concentration 0.5 μM) | red blood cell lysis ([1]; Concentration 1 μM) | red blood cell lysis ([1]; Concentration 2 μM) | red blood cell lysis ([1]; Concentration 4 μM) | red blood cell lysis ([1]; Concentration 8 μM) | red blood cell lysis ([1]; Concentration 16 μM) | red blood cell lysis ([1]; Concentration 32 μM) | red blood cell lysis ([1]; Concentration 63 μM) | red blood cell lysis ([1]; Concentration 125 μM) | red blood cell lysis ([1]; Concentration 250 μM) | red blood cell lysis [1, 7] | concentration at which the membrane is perturbed [1] | MIC [2, 8] | concentration at which the membrane is perturbed (membrane) | MIC [3] | MIC [4] | MBC (S. mutans) | bacteriostatic or bactericidal properties (regrow analysis, MIC vs MBC) (S. mutans) | also measured
1 | CC(C)(C)c1ccc(Cc2ccc(C(C)(C)C)c(O)c2)cc1O [Compound 3N, 5,5′-methylenebis(2-(tert-butyl)phenol)] | 0.13 | −0.02 | −0.02 | −0.02 | 0.11 | −0.03 | −0.02 | 0.02 | 0.38 | 0.43 | 0.34 | 0.74 | 32 µM | 2 µM | 32 µM |  |  |  |  | 
2 | C=CCc1ccc(O)c(-c2ccc(O)c(CC=C)c2)c1 [Compound A1, honokiol, reference compound] |  |  |  |  |  |  |  |  |  |  |  |  |  | 250 µM |  | 125 µM (≈ 33.3 µg/mL) | 125 µM (≈ 33.3 µg/mL) |  |  | bactericidal activity (S. mutans; at concentrations of 250 μM or lower): not bactericidal; MIC S. mutans, literature value [5]: 10 µg/mL (≈ 37.5 µM); MIC [6]: 125 µM and 33.3 µg/mL; MIC ([2]; 5% CO2-supplemented environment): 66.6 µg/mL; inhibition of biofilm growth (S. mutans biofilm): unable to inhibit biofilm growth
3 | Cc1cc(-c2c(O)ccc3ccccc23)cc(C(C)(C)C)c1O [Compound B9, 1-(3-(tert-Butyl)-4-hydroxy-5-methylphenyl)naphthalen-2-ol] |  |  |  |  |  |  |  |  |  |  |  |  |  | 32 µM |  | 32 µM (≈ 9.8 µg/mL) | 32 µM (≈ 9.8 µg/mL) | 32 µM (≈ 9.8 µg/mL) |  | 
4 | COC(=O)c1cc2c(-c3cc(C(C)C)c(O)c(C(C)C)c3)c(O)ccc2cc1O [Compound B10, Methyl 3,7-dihydroxy-8-(4-hydroxy-3,5-diisopropylphenyl)-2-naphthoate] |  |  |  |  |  |  |  |  |  |  |  |  |  | 32 µM |  | 8 µM (≈ 3.16 µg/mL) | 8 µM (≈ 3.16 µg/mL) | 32 µM (≈ 12.6 µg/mL) |  | 
5 | CCCc1cc(-c2c(O)ccc3cc(OC)ccc23)cc(C(C)(C)C)c1O [Compound B11, 1-(3-(tert-Butyl)-4-hydroxy-5-propylphenyl)-6-methoxynaphthalen-2-ol] |  |  |  |  |  |  |  |  |  |  |  |  |  | 16 µM |  | 16 µM (≈ 5.83 µg/mL) | 8 µM (≈ 2.92 µg/mL) | 63 µM (≈ 23 µg/mL) | bactericidal | 
6 | CC(C)(C)c1ccc(CCc2ccc(C(C)(C)C)c(O)c2)cc1O [Compound C2, 5,5′-(Ethane-1,2-diyl)bis(2-(tert-butyl)phenol)] | 0.02 | 0.01 | −0.02 | −0.02 | −0.01 | −0.03 | −0.03 | 0.07 | 0.29 | 0.43 | 0.70 | 0.48 | 32 µM | 2 µM | 32 µM | 1.25 µM (≈ 0.408 µg/mL) | 2.5 µM (≈ 0.816 µg/mL) | 4 µM (≈ 1.31 µg/mL) | bactericidal | lysis of blood cells [1]: lyses blood cells at high concentrations
